The text below walks through data of patent publication US11725012B2, “Imidazo[1,5-a]pyrazine derivatives as PI3K δ inhibitors” (priority 2016, dated 2023).

Each structure is given as a SMILES string. Read-outs that look alike come from different tables or passages of the source.

Series [1] deals with recombinant PI3K (p110δ/p85α) (Homo sapiens, UniProt O00329). The series can be described thus: PI3Kδ ADP-Glo kinase assay. It counts as biochemical. An outline of the steps:
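ADP-Glo luminescence with recombinant p110δ/p85α and lipid kinase substrate. Compound serial dilutions preincubated 0.5 hr, ATP added, reaction 1 hr at room temperature, then ATP depletion and detection steps. IC50 from a four-parameter logistic fit of residual activity.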
(In general: ADP-Glo first removes unused ATP, then detects ADP through luciferase.)

For series [2], the target named is recombinant PI3K (p110α/p85α) (Homo sapiens, UniProt P42336). Kind of series: PI3Kα ADP-Glo kinase assay. It is filed as biochemical.
A further series has as its target PI3K (p110β/p85α) (Homo sapiens, UniProt P42338). Kind of series: PI3Kβ ADP-Glo kinase assay. It is filed as biochemical.
The next series deals with PI3K (p110γ) (Homo sapiens, UniProt P48736). The series can be described thus: PI3Kγ ADP-Glo kinase assay. It counts as biochemical.
Series [3] can be described thus: Pharmacokinetic properties in Sprague-Dawley rats after IV and PO administration. The following applies: male, plasma, rat; for Vd: read-out: VdSS. It is filed as in vivo. The protocol: III. Pharmacokinetic Properties of Compounds in Sprague-Dawley Rats after Intravenous (IV) and Oral Administrations (PO)
Dose Formulation Preparation The injection dosing solution was prepared as follows: 1.0 mg of a test compound was weighted and dissolved in 0.32 mL of dimenthyl acetamide (DMA). The solution was then further diluted by 0.36 mL of ethanol and 0.32 mL of propylene glycol. The final concentration of the test compound was 1.0 mg·mL^−1.
The oral dosing solution was prepared as follows: 5.0 mg of a test compound was weighed and dispersed in […] of 0.5% methyl cellulose (MC). The final concentration of the test compound is 1 mg·mL^−1.
The animals were housed in solid bottom polypropylene cages with sterilized bedding and receive sterilized diet and sterilized water. The room was controlled and monitored for humidity (targeted mean range 40% to 70%) and temperature (targeted mean range 18° C. to 26° C.) with 10 to 20 air changes/hour. The light cycle was maintained at 12-h light and 12-h dark, Only animals that appeared to be healthy were selected for this study based on overall health, body weight, or other relevant information.
The male Sprague-Dawley rats were fasted overnight with free access to drinking water prior to treatment. On day 1, the animals were weighed and actual dose volume for each animal was calculated using the formula below: Dose Volume (mL)=[Nominal Dose (mg·kg^−1)/Dose Concentration (mg·mL^−1)]×Animal Body Weight (kg) (1)
Three rats were given a single IV dose of 1 mg·kg^−1 via tail vein injection and other three rats were given a single oral dose of 5 mg·kg^−1. The dosing solutions were freshly prepared prior to dose administration. The actual body weights and actual volume injected were recorded accordingly. Four hours after dosing, the rats were allowed to intake food.
Blood samples ([…]) were collected at different times from the jugular vein catheter into EDTA-K2 coated tubes, Whole blood was processed by centrifugation at 3000 g for 10 min. Plasma samples were collected and kept at −80° C. freezer prior to analysis. The blood sampling time was recorded accordingly.
The dose samples of IV and PO were diluted with MeOH:H2O (4:1, v/v) to achieve the concentration of 2 μg·mL^−1, respectively. Then, 2.5 μL of the diluted samples were added with 47.5 μL blank plasma, and then were handled as the plasma sample procedure. An aliquot of 10 μL of the mixture was injected into the LC-MS/MS system.

The nature of series [4]: Brain penetration in male C57BL/6 mice after oral administration. It counts as in vivo. The following applies: mouse; for Kp: male, C57BL/6, brain and plasma, PO 10 mg·kg^−1, read-out: BBB (Brain/Plasma Cone. Ratio). As for the experimental part:
IV. Brain Penetration of Compounds in Male C57BL/6 Mice after Oral Administration Dose Formulation Preparation
Approximately 4 mg of a test compound was weighed and dispersed in 0.5% methyl cellulose (MC). After that, the whole mixture were vortexed until a solution or suspension was formed. The final concentration of the test compound was 1 mg·mL^−1. The concentration of test compound in dosing formulations was determined within 85% to 115% of nominal values.
The mice were housed in solid bottom polypropylene cages with sterilized bedding. The room was controlled and monitored for humidity (targeted mean range 40% to 70%) and temperature (targeted mean range 20° to 25° C.) with 10 to 20 air changes/hour. The room was on a 12-hour light/dark cycle except when interruptions were necessitated by study activities. The mice were supplied with sterilized diet and water. All animals were examined upon receipt and were acclimated for at least 3 days. Only animals that appeared to be healthy were selected for the study based on overall health, body weight, or other relevant data as appropriate.
All procedures performed on animals were in accordance with established guidelines and reviewed and approved by an independent institutional review board.
The mice were administrated with test compound at 10 mg·kg^−1 via oral gavage, respectively. The dosing formulations were freshly prepared. The actual body weights and actual volume administered were recorded accordingly.
Three mice were sacrificed under carbon dioxide for sample collection at 1, 2 and 4 hours post dose, respectively. Blood samples (˜0.2 mL) were collected via cardiac puncture into anticoagulant tubes (coated with EDTA-Ka). The tubes were gently inverted several times to ensure mixing. Whole blood was processed for plasma by centrifugation at 5,500 rpm for 10 min. The brain was collected immediately after euthanasia. The sample collection time was recorded accordingly. After the removal of excess water, the brain was weighed and homogenized with 5× water (w/v) in an ice bath. […]

[5] abbreviates: read-out: PI3Kδ Enzyme activity IC50.
The mark [6] stands for this setting: read-out: PI3Kα Enzyme activity IC50.
[7] abbreviates: read-out: PI3Kβ Enzyme activity IC50.
The mark [8] stands for this setting: read-out: PI3Kγ Enzyme activity IC50.

What is called IC50 is the concentration that inhibits the measured activity by half. As usually defined, the AUC(0-inf) is the area under the concentration-time curve extrapolated to infinity. A low value points to less exposure. Usually half-life stands for how long it takes for the measured level to halve. A word on the Cmax: it is the maximum level reached in the sampled fluid or tissue. One may read the Tmax as the time at which the peak concentration occurs. As usually defined, the bioavailability is the share of a dose that reaches the circulation, judged against a reference dose that is usually intravenous. A low value points to little systemic uptake.

Chain of PI3K (p110β/p85α) (P42338 whole entry): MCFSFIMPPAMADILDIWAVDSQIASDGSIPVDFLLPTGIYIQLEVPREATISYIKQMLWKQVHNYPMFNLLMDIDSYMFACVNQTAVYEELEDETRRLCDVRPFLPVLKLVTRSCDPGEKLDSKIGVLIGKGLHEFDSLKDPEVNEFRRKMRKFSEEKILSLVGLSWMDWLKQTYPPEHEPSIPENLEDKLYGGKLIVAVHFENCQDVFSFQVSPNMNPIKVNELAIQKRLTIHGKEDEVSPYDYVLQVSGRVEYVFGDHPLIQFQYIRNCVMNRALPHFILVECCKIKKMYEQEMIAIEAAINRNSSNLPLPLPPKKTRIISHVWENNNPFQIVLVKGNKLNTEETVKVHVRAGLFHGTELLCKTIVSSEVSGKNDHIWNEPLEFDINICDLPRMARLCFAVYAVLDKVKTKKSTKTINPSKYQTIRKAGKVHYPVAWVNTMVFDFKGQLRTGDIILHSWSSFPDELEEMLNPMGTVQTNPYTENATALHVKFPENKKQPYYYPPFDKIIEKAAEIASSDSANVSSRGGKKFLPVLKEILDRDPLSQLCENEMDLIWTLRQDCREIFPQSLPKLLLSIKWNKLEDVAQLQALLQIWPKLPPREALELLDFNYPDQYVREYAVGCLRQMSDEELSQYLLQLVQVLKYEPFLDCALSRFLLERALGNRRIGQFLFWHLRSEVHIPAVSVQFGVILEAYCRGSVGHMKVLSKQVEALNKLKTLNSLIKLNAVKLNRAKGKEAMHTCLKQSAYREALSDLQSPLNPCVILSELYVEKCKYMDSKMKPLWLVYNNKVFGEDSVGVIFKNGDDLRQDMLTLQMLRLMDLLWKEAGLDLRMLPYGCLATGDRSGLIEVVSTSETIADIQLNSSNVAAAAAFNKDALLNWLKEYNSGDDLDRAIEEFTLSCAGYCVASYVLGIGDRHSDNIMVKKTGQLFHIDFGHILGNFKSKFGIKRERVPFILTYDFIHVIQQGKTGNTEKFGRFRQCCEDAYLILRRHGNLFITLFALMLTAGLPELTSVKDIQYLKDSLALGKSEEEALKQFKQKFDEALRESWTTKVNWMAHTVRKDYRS
Chain of PI3K (p110β/p85α) (P27986 whole entry partner): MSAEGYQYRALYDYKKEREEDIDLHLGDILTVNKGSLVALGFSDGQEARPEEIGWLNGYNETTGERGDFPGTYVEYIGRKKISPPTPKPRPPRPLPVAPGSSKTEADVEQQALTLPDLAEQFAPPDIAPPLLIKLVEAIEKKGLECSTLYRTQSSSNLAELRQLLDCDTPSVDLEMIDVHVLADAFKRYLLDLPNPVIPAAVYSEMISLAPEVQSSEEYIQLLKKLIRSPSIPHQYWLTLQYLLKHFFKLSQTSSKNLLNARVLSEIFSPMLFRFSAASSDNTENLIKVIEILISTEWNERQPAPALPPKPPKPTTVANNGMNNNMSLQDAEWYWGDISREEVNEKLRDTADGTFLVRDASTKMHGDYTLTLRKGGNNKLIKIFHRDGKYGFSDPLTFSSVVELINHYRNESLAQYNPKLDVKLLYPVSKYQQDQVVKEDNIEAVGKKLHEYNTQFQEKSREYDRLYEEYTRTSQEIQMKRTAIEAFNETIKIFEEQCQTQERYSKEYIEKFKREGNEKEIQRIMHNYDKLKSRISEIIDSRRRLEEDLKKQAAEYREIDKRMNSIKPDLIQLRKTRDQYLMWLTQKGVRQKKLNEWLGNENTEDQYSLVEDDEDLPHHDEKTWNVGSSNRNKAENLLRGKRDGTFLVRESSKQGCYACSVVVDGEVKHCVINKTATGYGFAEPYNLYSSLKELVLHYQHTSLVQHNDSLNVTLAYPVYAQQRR
Chain of recombinant PI3K (p110δ/p85α) (O00329 whole entry): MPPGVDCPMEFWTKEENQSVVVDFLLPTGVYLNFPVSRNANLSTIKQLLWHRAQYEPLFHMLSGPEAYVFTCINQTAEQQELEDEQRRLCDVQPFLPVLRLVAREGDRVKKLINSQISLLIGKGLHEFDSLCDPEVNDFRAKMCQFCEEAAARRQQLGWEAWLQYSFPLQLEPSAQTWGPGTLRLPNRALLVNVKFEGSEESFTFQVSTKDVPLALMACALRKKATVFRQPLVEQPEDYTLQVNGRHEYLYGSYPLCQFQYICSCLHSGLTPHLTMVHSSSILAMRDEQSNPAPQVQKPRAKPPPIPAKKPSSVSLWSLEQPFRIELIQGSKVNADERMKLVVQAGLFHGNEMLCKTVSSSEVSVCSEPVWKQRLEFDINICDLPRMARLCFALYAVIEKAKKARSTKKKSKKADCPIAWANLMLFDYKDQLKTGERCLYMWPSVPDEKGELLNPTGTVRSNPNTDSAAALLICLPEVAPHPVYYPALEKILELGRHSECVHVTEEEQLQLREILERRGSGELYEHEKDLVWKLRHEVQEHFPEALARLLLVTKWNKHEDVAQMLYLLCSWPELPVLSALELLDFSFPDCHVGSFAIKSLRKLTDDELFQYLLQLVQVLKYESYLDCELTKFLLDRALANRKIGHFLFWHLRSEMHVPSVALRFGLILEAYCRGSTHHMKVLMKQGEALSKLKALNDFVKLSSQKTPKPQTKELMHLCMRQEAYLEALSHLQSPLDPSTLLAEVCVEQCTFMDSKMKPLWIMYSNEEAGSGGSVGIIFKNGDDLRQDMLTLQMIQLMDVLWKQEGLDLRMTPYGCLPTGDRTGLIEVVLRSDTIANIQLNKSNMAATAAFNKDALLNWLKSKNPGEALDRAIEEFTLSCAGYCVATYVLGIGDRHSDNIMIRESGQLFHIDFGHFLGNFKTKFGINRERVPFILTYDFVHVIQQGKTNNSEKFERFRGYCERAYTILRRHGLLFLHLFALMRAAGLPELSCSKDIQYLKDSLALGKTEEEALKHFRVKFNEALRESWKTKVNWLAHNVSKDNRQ
Chain of recombinant PI3K (p110δ/p85α) (P27986 whole entry partner): as the sequence (P27986 whole entry partner) above
Chain of PI3K (p110γ) (P48736 whole entry): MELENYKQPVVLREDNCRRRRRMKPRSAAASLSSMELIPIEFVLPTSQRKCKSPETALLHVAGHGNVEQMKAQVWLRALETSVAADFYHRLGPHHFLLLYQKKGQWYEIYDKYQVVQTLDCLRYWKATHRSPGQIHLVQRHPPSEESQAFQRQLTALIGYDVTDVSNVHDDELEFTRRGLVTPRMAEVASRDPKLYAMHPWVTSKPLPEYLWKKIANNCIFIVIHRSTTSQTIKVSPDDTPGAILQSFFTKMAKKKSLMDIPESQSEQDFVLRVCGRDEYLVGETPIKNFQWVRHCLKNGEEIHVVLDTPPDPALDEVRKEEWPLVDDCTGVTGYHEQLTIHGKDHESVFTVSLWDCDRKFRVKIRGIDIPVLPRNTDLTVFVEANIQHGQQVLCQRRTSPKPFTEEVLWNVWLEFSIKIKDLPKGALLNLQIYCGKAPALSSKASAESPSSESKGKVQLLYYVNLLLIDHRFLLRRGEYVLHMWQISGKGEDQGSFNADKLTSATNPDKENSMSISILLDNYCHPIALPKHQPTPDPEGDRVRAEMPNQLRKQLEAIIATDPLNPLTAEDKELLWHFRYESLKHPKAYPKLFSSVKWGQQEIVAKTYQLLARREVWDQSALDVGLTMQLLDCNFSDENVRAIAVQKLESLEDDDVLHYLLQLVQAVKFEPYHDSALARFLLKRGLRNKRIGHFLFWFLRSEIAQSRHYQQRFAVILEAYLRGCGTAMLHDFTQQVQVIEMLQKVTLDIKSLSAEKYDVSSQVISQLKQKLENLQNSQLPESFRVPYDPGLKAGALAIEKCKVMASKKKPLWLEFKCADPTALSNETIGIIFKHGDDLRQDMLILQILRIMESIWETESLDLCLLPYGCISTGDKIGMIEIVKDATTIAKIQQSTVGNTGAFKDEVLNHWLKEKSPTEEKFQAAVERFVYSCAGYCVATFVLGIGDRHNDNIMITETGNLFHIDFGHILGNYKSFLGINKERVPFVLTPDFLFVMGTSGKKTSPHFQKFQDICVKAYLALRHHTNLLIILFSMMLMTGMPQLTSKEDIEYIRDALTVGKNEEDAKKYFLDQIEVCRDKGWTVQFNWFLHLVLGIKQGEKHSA
Chain of recombinant PI3K (p110α/p85α) (P42336 whole entry): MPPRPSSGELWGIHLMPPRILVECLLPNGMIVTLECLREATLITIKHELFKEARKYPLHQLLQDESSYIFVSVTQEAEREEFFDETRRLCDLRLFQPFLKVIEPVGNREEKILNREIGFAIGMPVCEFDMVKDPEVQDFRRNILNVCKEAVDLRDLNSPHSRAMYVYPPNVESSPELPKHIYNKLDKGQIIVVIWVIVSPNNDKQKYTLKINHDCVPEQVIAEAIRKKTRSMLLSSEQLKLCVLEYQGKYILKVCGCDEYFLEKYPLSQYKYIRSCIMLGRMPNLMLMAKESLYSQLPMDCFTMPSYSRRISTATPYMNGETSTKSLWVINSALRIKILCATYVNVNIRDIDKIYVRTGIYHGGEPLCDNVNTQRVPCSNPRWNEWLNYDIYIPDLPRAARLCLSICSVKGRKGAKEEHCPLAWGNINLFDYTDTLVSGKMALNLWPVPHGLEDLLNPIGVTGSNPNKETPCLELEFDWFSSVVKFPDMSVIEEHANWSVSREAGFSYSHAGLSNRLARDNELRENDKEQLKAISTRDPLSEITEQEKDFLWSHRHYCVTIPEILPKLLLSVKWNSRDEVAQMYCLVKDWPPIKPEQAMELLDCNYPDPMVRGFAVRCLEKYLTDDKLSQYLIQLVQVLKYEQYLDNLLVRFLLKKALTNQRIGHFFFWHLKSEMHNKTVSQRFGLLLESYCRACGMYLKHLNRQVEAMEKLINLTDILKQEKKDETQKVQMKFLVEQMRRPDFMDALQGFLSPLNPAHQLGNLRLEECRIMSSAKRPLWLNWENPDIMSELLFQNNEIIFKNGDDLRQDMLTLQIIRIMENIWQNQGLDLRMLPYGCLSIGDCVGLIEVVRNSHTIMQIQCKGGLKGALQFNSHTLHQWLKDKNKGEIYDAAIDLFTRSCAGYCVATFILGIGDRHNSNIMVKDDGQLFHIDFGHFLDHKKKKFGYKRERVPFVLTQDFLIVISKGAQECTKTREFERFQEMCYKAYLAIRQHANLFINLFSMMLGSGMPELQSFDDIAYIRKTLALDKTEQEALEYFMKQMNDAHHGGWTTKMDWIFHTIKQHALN
Chain of recombinant PI3K (p110α/p85α) (P27986 whole entry partner): as the sequence (P27986 whole entry partner) above

Turning to `CC(C)Oc1c([C@H](C)c2nc(Cl)c3c(N)nccn23)cc(Cl)c(F)c1-c1ccc(C(=O)N(C)C)nc1` [Compound 16A], the IC50 in series [1] (PI3Kδ Enzyme activity IC50) worked out at 0.71 nM. Also, the IC50 in series [2] (PI3Kα Enzyme activity IC50) was determined as 790 nM. At PI3K (p110β/p85α) (PI3Kβ Enzyme activity IC50), this molecule came in with an IC50 of 870 nM. The same molecule registered an IC50 against PI3K (p110γ) (PI3Kγ Enzyme activity IC50) of 440 nM. In series [3] (1 mg/kg, IV (1 mpk)), the AUC(0-inf) was 1060 ng·h/mL, the clearance was 16 mL/min/kg, the half-life is 1.3 h and the Vd was 1.8 L/kg. For the same molecule, in series [3] (5 mg/kg, PO (5 mpk)), the AUC(0-inf) is 2190 ng·h/mL, the Cmax was 496 ng/mL, the Tmax was 1 h and the bioavailability worked out at 41.1%. This molecule also had a half-life in series [3] (5 mg/kg, PO (5 mpk)) of 1.9 h. In addition, the Kp in series [4] was 0.05.
With `CC(C)Oc1c([C@H](C)c2nc(Cl)c3c(N)nccn23)cc(Cl)c(F)c1-c1ccc(C(F)(F)F)nc1` [Compound 40A], in series [1] (PI3Kδ Enzyme activity IC50), the IC50 was 1 nM. In addition, the IC50 in series [2] (PI3Kα Enzyme activity IC50) was determined as 33000 nM. On PI3K (p110β/p85α) (PI3Kβ Enzyme activity IC50), this molecule gave an IC50 of 6800 nM. Moreover, at PI3K (p110γ) (PI3Kγ Enzyme activity IC50), half-maximal inhibition (IC50) required 3800 nM. In series [3] (1 mg/kg, IV (1 mpk)), the AUC(0-inf) is 768 ng·h/mL, the clearance was 22.2 mL/min/kg, the half-life was 9 h and the Vd was 14.8 L/kg. In series [3] (5 mg/kg, PO (5 mpk)), the AUC(0-inf) is 1720 ng·h/mL, the Cmax came to 179 ng/mL, the Tmax was 2.7 h and the bioavailability came to 51%. The molecule also showed a half-life in series [3] (5 mg/kg, PO (5 mpk)) of 6.6 h. Also, the Kp in series [4] was found to be 0.29. Moreover, in series [4] (PO), the “Brain/Plasma Conc. Ratio (in words)” value is “much better Brain/Plasma Conc, Ratio”.
Regarding `CC(C)Oc1c(C(C)c2nc(Cl)c3c(N)nccn23)cc(Cl)c(F)c1C1CNC(=O)C1` (single isomer, unassigned) [Compound 48B, 4-(3-(1-(8-amino-1-chloroimidazo[1,5-a]pyrazin-3-yl)ethyl)-5-chloro-6-fluoro-2-isopropoxyphenyl)pyrrolidin-2-one], in series [1] (PI3Kδ Enzyme activity IC50), the IC50 is 0.31 nM. In addition, the IC50 in series [2] (PI3Kα Enzyme activity IC50) was 1300 nM. The molecule further came in with an IC50 at PI3K (p110β/p85α) (PI3Kβ Enzyme activity IC50) of 1200 nM. Further, 630 nM corresponded to half-maximal inhibition on PI3K (p110γ) (PI3Kγ Enzyme activity IC50) (IC50). Also, in series [3] (1 mg/kg, IV (1 mpk)), the AUC(0-inf) is 425 ng·h/mL, the clearance was determined as 39.2 mL/min/kg, the half-life was 1.4 h and the Vd amounted to 4.3 L/kg. Besides, in series [3] (5 mg/kg, PO (5 mpk)), the AUC(0-inf) was 1000 ng·h/mL, the Cmax was 254 ng/mL, the Tmax worked out at 0.8 h and the bioavailability is 47%. For the same molecule, the half-life in series [3] (5 mg/kg, PO (5 mpk)) is 2.1 h.
Take `CCOc1c(C(C)c2nc(Br)c3c(N)nccn23)cc(Cl)c(C)c1-c1ccc(C(F)(F)F)nc1` (stereo not drawn) [Compound 24, 1-bromo-3-(1-(5-chloro-2-ethoxy-4-methyl-3-(6-(trifluoromethyl)pyridin-3-yl)phenyl)ethyl)imidazo[1,5-a]pyrazin-8-amine]: the IC50 in series [1] (setting [5]) came to 2.9 nM; in series [2] (setting [6]) it was 4000 nM; on PI3K (p110β/p85α) (setting [7]), 1600 nM; on PI3K (p110γ) (setting [8]), 2100 nM.
For `CC(C)Oc1c(C(C)c2nc(Cl)c3c(N)nccn23)cc(Cl)c(F)c1-c1ccc(C(F)(F)F)nc1` (stereo not drawn) [Compound 40, 1-chloro-3-(1-(5-chloro-4-fluoro-2-isopropoxy-3-(6-(trifluoromethyl)pyridin-3-yl)phenyl)ethyl)imidazo[1,5-a]pyrazin-8-amine] the same measures were 5.5 nM, more than 50000 nM, more than 50000 nM and more than 50000 nM.
For `CCOc1c(C(C)c2nc(Cl)c3c(N)nccn23)cc(Cl)c(C)c1-c1ccc(=O)[nH]c1` (stereo not drawn) [Compound 15, 5-(3-(1-(8-amino-1-chloroimidazo[1,5-a]pyrazin-3-yl)ethyl)-5-chloro-2-ethoxy-6-methylphenyl)pyridin-2(1H)-one] the same measures were 1.2 nM, 830 nM, 320 nM and 320 nM.
